From patent US10722514B2 (FLX Bio, Inc., priority 2017, dated 2020)
Counter-ions that a name gives are not always drawn.

Biological target: T1, recombinant full-length USP7 (Homo sapiens, UniProt Q93009)
T1 construct: A 25 μl reaction volume containing recombinant full-length USP7 (62 pM)
Experiment: USP7-mediated ubiquitin-rhodamine cleavage assay
Format: biochemical
Conditions: recombinant full-length USP7 62 pM; ubiquitin-rhodamine 100 nM; 30-minute incubation with compound, 1 hour reaction at room temperature; read-out: Potency: USP7 IC50
Experimental: In the case of the USP7 deubiquitylating enzyme, the IC50 of an USP7 inhibiting compound is the concentration of the compound that inhibits 50% of the activity observed in a USP7-mediated ubiquitin-rhodamine cleavage assay.
For the USP7 inhibitors disclosed herein, their potency was measured using the following test method.
A 25 μl reaction volume containing recombinant full-length USP7 (62 pM) in 20 mM HEPES pH 7.3, 150 mM NaCl, 1 mM TCEP, and 125 μg/ml BSA was assembled in wells of 384 well plates. Test compounds were dispensed with a Hewlett Packard D300 digital dispenser (1% final DMSO). Following a 30-minute incubation at room temperature, ubiquitin-rhodamine was added with the D300 to a final concentration of 100 nM and the reaction was allowed to proceed for 1 hour at room temperature protected from light. The reaction was stopped by the addition of 5 μl 1M acetic acid. Rhodamine fluorescence was measured using an Envision plate reader (Perkin Elmer) and IC50 values were determined by non-linear regression using a 4-parameter fit in a Dotmatics (Bishops Stortford, Hertfordshire, England) software package.

T1 sequence (Q93009 whole entry): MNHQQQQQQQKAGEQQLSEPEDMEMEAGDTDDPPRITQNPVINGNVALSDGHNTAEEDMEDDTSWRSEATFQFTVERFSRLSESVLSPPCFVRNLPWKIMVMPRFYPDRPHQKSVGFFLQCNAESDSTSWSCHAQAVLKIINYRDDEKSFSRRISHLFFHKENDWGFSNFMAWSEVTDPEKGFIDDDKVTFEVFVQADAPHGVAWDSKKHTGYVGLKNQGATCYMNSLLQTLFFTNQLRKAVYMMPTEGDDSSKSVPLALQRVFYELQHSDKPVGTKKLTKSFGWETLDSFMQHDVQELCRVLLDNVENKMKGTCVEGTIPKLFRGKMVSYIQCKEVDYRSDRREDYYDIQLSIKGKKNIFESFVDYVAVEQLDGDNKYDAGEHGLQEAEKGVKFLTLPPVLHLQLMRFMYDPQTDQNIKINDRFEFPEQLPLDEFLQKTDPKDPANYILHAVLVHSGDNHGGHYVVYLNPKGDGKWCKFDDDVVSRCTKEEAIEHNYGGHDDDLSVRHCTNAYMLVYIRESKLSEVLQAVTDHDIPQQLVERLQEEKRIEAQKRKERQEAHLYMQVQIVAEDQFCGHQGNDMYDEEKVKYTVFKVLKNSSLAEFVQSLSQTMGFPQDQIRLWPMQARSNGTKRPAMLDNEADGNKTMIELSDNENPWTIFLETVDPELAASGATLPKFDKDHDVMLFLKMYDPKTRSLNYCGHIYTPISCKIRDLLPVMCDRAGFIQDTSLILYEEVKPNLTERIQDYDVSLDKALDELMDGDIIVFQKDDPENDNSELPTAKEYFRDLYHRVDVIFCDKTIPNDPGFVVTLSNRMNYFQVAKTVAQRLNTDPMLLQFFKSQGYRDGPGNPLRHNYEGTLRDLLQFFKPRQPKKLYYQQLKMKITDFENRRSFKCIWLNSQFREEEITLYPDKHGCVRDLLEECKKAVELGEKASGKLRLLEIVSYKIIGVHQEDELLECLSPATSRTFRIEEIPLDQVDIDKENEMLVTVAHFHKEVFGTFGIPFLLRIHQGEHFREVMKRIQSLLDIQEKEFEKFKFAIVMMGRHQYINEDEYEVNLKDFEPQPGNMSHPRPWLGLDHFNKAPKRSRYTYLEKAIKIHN

IC50 [nM] | Compound
< 1000 | Cc1cc(Cl)cc(-c2ccnc3cc(Cn4c(=O)ccn(CC(F)(F)F)c4=O)sc23)c1O[C@@H]1CC[C@@H](N)C1 [Example 59, 3-((7-(2-(((1R,3R)-3-Aminocyclopentyl)oxy)-5-chloro-3-methylphenyl)thieno[3,2-b]pyridin-2-yl)methyl)-1-(2,2,2-trifluoroethyl)pyrimidine-2,4(1H,3H)-dione]
< 1000 | Cc1cc(Cl)cc(-c2ccnc3cc(CN4C(=O)CCN(C)C4=O)sc23)c1OC1CCNCC1 [Example 203, 3-((7-(5-Chloro-3-methyl-2-(piperidin-4-yloxy)phenyl)thieno[3,2-b]pyridin-2-yl)methyl)-1-methyldihydropyrimidine-2,4(1H,3H)-dione]
< 1000 | Cc1cc(Cl)cc(-c2ccnc3cc(CN4C(=O)C5C(C4=O)C5(C)C)sc23)c1O[C@@H]1CCNC[C@@H]1F (stereo partly drawn) [Example 376, 3-[[7-[5-chloro-2-[[(3S,4R)-3-fluoro-4-piperidyl]oxy]-3-methyl-phenyl]thieno[3,2-b]pyridin-2-yl]methyl]-6,6-dimethyl-3-azabicyclo[3.1.0]hexane-2,4-dione; 2,2,2-trifluoroacetic acid]
< 1000 | Cc1cc(C(=O)O)cc(-c2ccnc3cc(Cn4c(=O)ccn(CC(F)(F)F)c4=O)sc23)c1O[C@H]1CCCNC1 [Example 291, 3-[2-[[2,6-dioxo-3-(2,2,2-trifluoroethyl)pyrimidin-1-yl]methyl]thieno[3,2-b]pyridin-7-yl]-5-methyl-4-[[(3S)-3-piperidyl]oxy]benzoic acid]
1000 to 10000 | Cc1cc(Cl)cc(-c2ccnc3cc(CN4C(=O)CN(C)C4=O)sc23)c1OC1CCNCC1 [Example 224, 3-((7-(5-Chloro-3-methyl-2-(piperidin-4-yloxy)phenyl)thieno[3,2-b]pyridin-2-yl)methyl)-1-methylimidazolidine-2,4-dione]
< 1000 | Cc1cc(Cl)cc(-c2ccnc3cc(CN4C(=O)CCC4=O)sc23)c1O[C@@H]1CN(C2CCC2)C[C@@H]1F [Example 322, 1-[[7-[5-chloro-2-[(3R,4S)-1-cyclobutyl-4-fluoro-pyrrolidin-3-yl]oxy-3-methyl-phenyl]thieno[3,2-b]pyridin-2-yl]methyl]pyrrolidine-2,5-dione]
< 1000 | Cc1cc(Cl)cc(-c2ccnc3cc(Cn4c(=O)cc[nH]c4=O)sc23)c1OC1CCNCC1 [Example 184, 3-((7-(5-Chloro-3-methyl-2-(piperidin-4-yloxy)phenyl)thieno[3,2-b]pyridin-2-yl)methyl)pyrimidine-2,4(1H,3H)-dione]

The next lines start with the compound.

Compound | IC50 [nM]
Cc1cc(Cl)cc(-c2ccnc3cc(CN4C(=O)C5C(C4=O)C5(C)C)sc23)c1OC1CN2CCC1CC2 (centres unmarked) [Example 316, 3-[[7-(5-chloro-3-methyl-2-quinuclidin-3-yloxy-phenyl)thieno[3,2-b]pyridin-2-yl]methyl]-6,6-dimethyl-3-azabicyclo[3.1.0]hexane-2,4-dione; 2,2,2-trifluoroacetic acid] | < 1000
Cc1cc(Cl)cc(-c2ccnc3cc(CO)sc23)c1O[C@@H]1CCCC[C@@H]1N [Example 196, (7-(2-(((1R,2S)-2-Aminocyclohexyl)oxy)-5-chloro-3-methylphenyl)thieno[3,2-b]pyridin-2-yl)methanol] | > 30000
Cc1cc(Cl)cc(-c2ccnc3ccsc23)c1OC1CCNC1=O (centres unmarked) [Example 79, 3-(4-chloro-2-methyl-6-(thieno[3,2-b]pyridin-7-yl)phenoxy)pyrrolidin-2-one] | > 30000
CO[C@@H]1CNC[C@@H]1Oc1c(C)cc(Cl)cc1-c1ccnc2cc(CO)sc12 [Example 66, (7-(5-Chloro-2-(((3S,4R)-4-methoxypyrrolidin-3-yl)oxy)-3-methylphenyl)thieno[3,2-b]pyridin-2-yl)methanol] | 10000 to 30000
Cc1cc(Cl)cc(-c2ncnc3cc(CN4C(=O)CCC4=O)sc23)c1OC1CCNCC1 [Example 177, 1-((4-(5-Chloro-3-methyl-2-(piperidin-4-yloxy)phenyl)thieno[3,2-d]pyrimidin-6-yl)methyl)pyrrolidine-2,5-dione] | < 1000
Cc1cc(Cl)cc(-c2ncnc3cc(CN4C(=O)CCCC4=O)sc23)c1OC1CCNCC1 [Example 259, 1-((4-(5-Chloro-3-methyl-2-(piperidin-4-yloxy)phenyl)thieno[3,2-d]pyrimidin-6-yl)methyl)piperidine-2,6-dione] | 1000 to 10000
CCC(O)c1cc2ncnc(-c3cc(Cl)cc(C)c3O[C@@H]3CNC[C@@H]3F)c2s1 (stereo partly drawn) [Example 94, 1-(4-(5-Chloro-2-(((3R,4S)-4-fluoropyrrolidin-3-yl)oxy)-3-methylphenyl)thieno[3,2-d]pyrimidin-6-yl)propan-1-ol] | 1000 to 10000
Cc1cc(Cl)cc(-c2ncnc3cc(CN4C(=O)CCC4=O)sc23)c1O[C@@H]1CNC[C@@H]1F [Example 113, 1-((4-(5-Chloro-2-(((3R,4S)-4-fluoropyrrolidin-3-yl)oxy)-3-methylphenyl)thieno[3,2-d]pyrimidin-6-yl)methyl)pyrrolidine-2,5-dione] | 1000 to 10000
Cc1cc(Cl)cc(-c2ccnc3cc(CN4C(=O)C5C(C4=O)C5(C)C)sc23)c1O[C@@H]1CNCC[C@H]1C (stereo partly drawn) [Example 341, 3-[[7-[5-chloro-3-methyl-2-[[(3S,4R)-4-methyl-3-piperidyl]oxy]phenyl]thieno[3,2-b]pyridin-2-yl]methyl]-6,6-dimethyl-3-azabicyclo[3.1.0]hexane-2,4-dione] | < 1000
Cc1cc(Cl)cc(-c2ccnc3cc(CO)sc23)c1O[C@@H]1CN[C@H](C(C)(C)O)C1 [Example 72, 2-((2S,4S)-4-(4-Chloro-2-(2-(hydroxymethyl)thieno[3,2-b]pyridin-7-yl)-6-methylphenoxy)pyrrolidin-2-yl)propan-2-ol] | 1000 to 10000
CCC(O)c1cc2nccc(-c3cc(Cl)cc(C)c3O[C@@H]3CNC[C@@H]3F)c2s1 (stereo partly drawn) [Example 82, 1-(7-(5-Chloro-2-(((3R,4S)-4-fluoropyrrolidin-3-yl)oxy)-3-methylphenyl)thieno[3,2-b]pyridin-2-yl)propan-1-ol] | 1000 to 10000

Same assay, conditions: recombinant full-length USP7 62 pM; ubiquitin-rhodamine 100 nM; 30-minute pre-incubation, 1 hour reaction at room temperature; read-out: Potency (USP7 IC50)

IC50 [nM] | Compound
< 1000 | Cc1cc(Cl)cc(-c2ccnc3cc(Cn4c(=O)ccn(C)c4=O)sc23)c1OC1CCCN(CCO)C1 (centres unmarked) [Example 506, 3-[[7-[5-chloro-2-[[1-(2-hydroxyethyl)-3-piperidyl]oxy]-3-methyl-phenyl]thieno[3,2-b]pyridin-2-yl]methyl]-1-methyl-pyrimidine-2,4-dione]
< 1000 | Cc1cc(Cl)cc(-c2ccnc3cc(Cn4c(=O)ccn(CC(F)(F)F)c4=O)sc23)c1O[C@@H]1CCN(CC(F)(F)F)C[C@@H]1C [Example 638, 3-[[7-[5-chloro-3-methyl-2-[[(3S,4R)-3-methyl-1-(2,2,2-trifluoroethyl)-4-piperidyl]oxy]phenyl]thieno[3,2-b]pyridin-2-yl]methyl]-1-(2,2,2-trifluoroethyl)pyrimidine-2,4-dione]
< 1000 | Cc1cc(Cl)cc(-c2ccnc3cc(Cn4c(=O)ccn(C)c4=O)sc23)c1O[C@H]1CNCC[C@H]1C [Example 588, 3-[[7-[5-chloro-3-methyl-2-[[(3R,4R)-4-methyl-3-piperidyl]oxy]phenyl]thieno[3,2-b]pyridin-2-yl]methyl]-1-methyl-pyrimidine-2,4-dione; 2,2,2-trifluoroacetic acid]
< 1000 | Cc1cc(Cl)cc(-c2ccnc3cc(Cn4c(=O)ccn(CC(F)(F)F)c4=O)sc23)c1OCCN1CCCC1 [Example 661, 3-[[7-[5-chloro-3-methyl-2-(2-pyrrolidin-1-ylethoxy)phenyl]thieno[3,2-b]pyridin-2-yl]methyl]-1-(2,2,2-trifluoroethyl)pyrimidine-2,4-dione; 2,2,2-trifluoroacetic acid]
< 1000 | CCO[C@H]1CNC[C@H]1Oc1c(C)cc(Cl)cc1-c1ccnc2cc(Cn3c(=O)ccn(CC(F)(F)F)c3=O)sc12 [Example 604, 3-[[7-[5-chloro-2-[(3R,4S)-4-ethoxypyrrolidin-3-yl]oxy-3-methyl-phenyl]thieno[3,2-b]pyridin-2-yl]methyl]-1-(2,2,2-trifluoroethyl)pyrimidine-2,4-dione]
< 1000 | Cc1cc(Cl)cc(-c2ccnc3cc(Cn4c(=O)c(C)cn(CC(F)(F)F)c4=O)sc23)c1O[C@H]1CCCNC1 [Example 557, 3-[[7-[5-chloro-3-methyl-2-[[(3S)-3-piperidyl]oxy]phenyl]thieno[3,2-b]pyridin-2-yl]methyl]-5-methyl-1-(2,2,2-trifluoroethyl)pyrimidine-2,4-dione]
< 1000 | Cc1cc(Cl)cc(-c2ccnc3cc(Cn4c(=O)ccn(CC(F)(F)F)c4=O)sc23)c1O[C@@H]1CCN(Cc2cnoc2)C[C@@H]1C [Example 648, 3-[[7-[5-chloro-2-[[(3S,4R)-1-(isoxazol-4-ylmethyl)-3-methyl-4-piperidyl]oxy]-3-methyl-phenyl]thieno[3,2-b]pyridin-2-yl]methyl]-1-(2,2,2-trifluoroethyl)pyrimidine-2,4-dione]

Compound | IC50 [nM]
Cc1cc(Cl)cc(-c2ccnc3cc(Cn4c(=O)ccn(CC(F)(F)F)c4=O)sc23)c1OC1CC(N2CCC[C@H]2CO)C1 (stereo partly drawn) [Example 624, 3-[[7-[5-chloro-2-[3-[(2S)-2-(hydroxymethyl)pyrrolidin-1-yl]cyclobutoxy]-3-methyl-phenyl]thieno[3,2-b]pyridin-2-yl]methyl]-1-(2,2,2-trifluoroethyl)pyrimidine-2,4-dione dihydrochloride] | < 1000
